# Measured values from patent US8058444B2, “Heterocycle-substituted pyridine derivative's salt or crystal thereof” (Eisai R&D Management Co., Ltd., priority 2007, dated 2011).
# Structures can show the parent of a compound that is named as a salt.
# Test system: C. albicans E81022 strain
# Experiment: Experimental systemic candidal infection model in mice
# Type: in vivo
# Details: peroral (into the stomach), female ICR mice infected i.v. with C. albicans E81022, observed until 14 days after infection
# Procedure: 1. Experimental Systemic Candidal Infection Model in Mice
# A standing culture of C. albicans E81022 strain was carried out for 48 hours at 30° C in sabouraud dextrose agar medium (SDA), the recovered fungal cells were suspended in sterilized physiological saline. By counting the fungal number on cytometry plate, the suspension was diluted to 2×10^7 cells/mL with sterilized physiological saline to serve fungal inoculum.
# The fungal inoculum was used in the amounts of 0.2 mL to inoculate 4.5 to 5.5 week-old female ICR mice in the tail vein (4×10^6 cells/mouse).
# From 0.5 and 1 hours after fungal inoculation, 0.2 mL of agent solution (compound of Reference Example 1 dissolved to 5 mg/ml in 50 mM hydrochloric acid, diluted suitably in sterile water, and then, diluted 10-fold in 5% fructose solution) was administered into the stomach using a peroral probe twice every 6 hours. […]
# The protective effect was determined by observing lifeldeath until 14 days after infection and calculating the mean survival days.
smiles,measurement,setting,value
"Nc1ncccc1-c1cc(Cc2ccc(COc3ccccn3)cc2)no1 [Hydrochloride of Reference Example 1, 3-(3-(4-(Pyridin-2-yloxymethyl)-benzyl)-isoxazol-5-yl)-pyridin-2-yl amine]",Mean Survival Days,2.5 mg/kg,11.0 days
same,Mean Survival Days,5 mg/kg,13.4 days
